Publication doi:10.1101/2023.05.15.540887, “Comparative analysis of drug-like EP300/CREBBP acetyltransferase inhibitors” (bioRxiv, 2023)

Columns and labels:
[1] = system: SR; experiment: NCI-60 growth inhibition (sulforhodamine B); assay type: cell-based, human; details: SR (Leukemia), negative log of Molar conc., LCONC -8
[2] = system: MDA-MB-435; experiment: NCI-60 growth inhibition (sulforhodamine B); assay type: cell-based, human; details: MDA-MB-435 (Melanoma), negative log of Molar conc., LCONC -8
[3] = system: UO-31; experiment: NCI-60 growth inhibition (sulforhodamine B); assay type: cell-based; details: Homo sapiens, UO-31, Renal Cancer, negative log of Molar value, LCONC -8, EXPID 2301NS84
[4] = system: SK-MEL-5; experiment: NCI-60 growth inhibition (sulforhodamine B); assay type: cell-based, human; details: SK-MEL-5 (Melanoma), negative log of Molar conc., LCONC -8
[5] = system: NCI-H322M; experiment: NCI-60 growth inhibition (sulforhodamine B); assay type: cell-based, human; details: NCI-H322M (Non-Small Cell Lung Cancer), negative log of Molar conc., LCONC -8
[6] = system: HT29; experiment: NCI-60 growth inhibition (sulforhodamine B); assay type: cell-based, human; details: HT29 (Colon Cancer), negative log of Molar conc., LCONC -8
[7] = system: A498; experiment: NCI-60 growth inhibition (sulforhodamine B); assay type: cell-based; details: Homo sapiens, A498, Renal Cancer, negative log of Molar value, LCONC -8, EXPID 2301NS84
[8] = system: MCF10A PANK4 KO+EV cells; experiment: Sulforhodamine B cell growth assay, MCF10A PANK4 KO+EV; assay type: cell-based, human
[9] = system: RPMI-8226; experiment: NCI-60 growth inhibition (sulforhodamine B); assay type: cell-based, human; details: RPMI-8226 (Leukemia), negative log of Molar conc., LCONC -8
[10] = system: LOXIMVI; experiment: NCI-60 growth inhibition (sulforhodamine B); assay type: cell-based, human; details: LOX IMVI (Melanoma), negative log of Molar conc., LCONC -8
[11] = system: 786-0; experiment: NCI-60 growth inhibition (sulforhodamine B); assay type: cell-based; details: Homo sapiens, 786-0, Renal Cancer, negative log of Molar value, LCONC -8, EXPID 2301NS84
[12] = system: BT-549; experiment: NCI-60 growth inhibition (sulforhodamine B); assay type: cell-based; details: Homo sapiens, BT-549, Breast Cancer, negative log of Molar value, LCONC -8, EXPID 2301NS84
[13] = system: NCI/ADR-RES; experiment: NCI-60 growth inhibition (sulforhodamine B); assay type: cell-based; details: Homo sapiens, LCONC -8
[14] = system: K-562; experiment: NCI-60 growth inhibition (sulforhodamine B); assay type: cell-based, human; details: K-562 (Leukemia), negative log of Molar conc., LCONC -8
[15] = system: HCT-15; experiment: NCI-60 growth inhibition (sulforhodamine B); assay type: cell-based, human; details: HCT-15 (Colon Cancer), negative log of Molar conc., LCONC -8
[16] = Homo sapiens, read-out: GI50 NLOGVALUE (converted)
[17] = Homo sapiens, read-out: IC50 NLOGVALUE (converted)
[18] = Homo sapiens, read-out: LC50 NLOGVALUE
[19] = Homo sapiens, read-out: GI50 NLOGVALUE
[20] = read-out: GI50 NLOGVALUE (converted)

**Q.** Which results are given for `C[C@H](CN[C@@H](C(=O)Nc1ccc(-c2cnn(C)c2)cn1)c1ccccc1)c1ccc(C#N)cc1` [CPI-1612]?
**A.** GI50 [1, 16]: 1860 nM; IC50 [1, 17]: 56200 nM; TGI NLOGVALUE [1]: 4; GI50 [2, 16]: 47.9 nM; IC50 [2, 17]: 50100 nM; CC50 [2, 18]: > 100000 nM; TGI NLOGVALUE [2]: 4; GI50 ([3]; read-out: GI50 NLOGVALUE): < 10 nM; IC50 ([3]; read-out: IC50 NLOGVALUE (converted)): 28.2 nM; CC50 ([3]; read-out: LC50 NLOGVALUE): > 100000 nM; GI50 [4, 19]: < 10 nM; IC50 [4, 17]: 26.3 nM; CC50 [4, 18]: > 100000 nM; TGI NLOGVALUE [4]: 4.48; GI50 [5, 16]: 288 nM; IC50 ([5]; Homo sapiens, read-out: IC50 NLOGVALUE): > 100000 nM; TGI NLOGVALUE [5]: 4; TGI NLOGVALUE [6]: 4; GI50 ([6]; Homo sapiens, HT-29, read-out: GI50 NLOGVALUE (converted)): 49 nM; IC50 ([6]; Homo sapiens, HT-29, read-out: IC50 NLOGVALUE (converted)): 437 nM; GI50 [7, 20]: 29.5 nM; IC50 ([7]; read-out: IC50 NLOGVALUE): > 100000 nM; CC50 ([7]; read-out: LC50 NLOGVALUE): > 100000 nM; IC50 ([8]; Homo sapiens, MCF-10A KO+EV, 72 h): 84 nM; growth inhibition activity at 1 μM ([8]; PANK4 KO+EV cells, 1 μM): remains active; GI50 [9, 19]: < 10 nM; IC50 [9, 17]: 12.6 nM; CC50 [9, 18]: > 100000 nM; TGI NLOGVALUE [9]: 4.56; GI50 [10, 16]: 44.7 nM; IC50 [10, 17]: 129 nM; CC50 [10, 18]: > 100000 nM; TGI NLOGVALUE [10]: 4; GI50 [11, 20]: 55000 nM; IC50 ([11]; read-out: IC50 NLOGVALUE): > 100000 nM; CC50 ([11]; read-out: LC50 NLOGVALUE): > 100000 nM; GI50 ([12]; read-out: GI50 NLOGVALUE): > 100000 nM; IC50 ([12]; read-out: IC50 NLOGVALUE): > 100000 nM; CC50 ([12]; read-out: LC50 NLOGVALUE): > 100000 nM; GI50 ([13]; NCI/ADR-RES (Ovarian Cancer), negative log of Molar conc., read-out: GI50 NLOGVALUE (converted)): 6460 nM; IC50 ([13]; NCI/ADR-RES, Ovarian Cancer, negative log of Molar value, EXPID 2301NS84, read-out: IC50 NLOGVALUE (converted)): 29500 nM; CC50 ([13]; NCI/ADR-RES, Ovarian Cancer, negative log of Molar value, EXPID 2301NS84, read-out: LC50 NLOGVALUE): > 100000 nM; GI50 ([14]; Homo sapiens, K562, read-out: GI50 NLOGVALUE): < 10 nM; IC50 ([14]; Homo sapiens, K562, read-out: IC50 NLOGVALUE): < 10 nM; CC50 ([14]; Homo sapiens, K562, read-out: LC50 NLOGVALUE): > 100000 nM; TGI NLOGVALUE [14]: 4; TGI NLOGVALUE [15]: 4; GI50 [15, 16]: 16.2 nM; IC50 [15, 17]: 53.7 nM; CC50 [15, 18]: > 100000 nM
